# From patent US11942223B1, “Systems and methods for rapid gene set enrichment analysis” (Immuneering Corporation, priority 2018, dated 2024)
# Key:
# MDA-MB-231 cells [1] = assay: CellTiter-Glo viability, MDA-MB-231; type: cell-based, human; conditions: MDA-MB-231, 10 μM of drug
# Procedure: (§1) Viability was determined at the maximum drug concentration measured in a given experiment via CellTiter-Glo® (CTG) per manufacturers recommendations: https://www.promega.com/-/media/files/resources/protocols/technical-bulletins/0/celltiter-glo-luminescent-cell-viability-assay-protocol.pdf?la=en.
# MDA-MB-231 cells [2] = assay: Transwell ECM-based invasion assay, MDA-MB-231; type: cell-based, human; conditions: for inhibition of tumor cell invasion: MDA-MB-231, three GSK3 inhibitors, FIG. 7B
# Procedure: To experimentally test the in silico predictions made by Cosiner™ and to pursue an inhibitor of metastasis, an in vitro ECM-based invasion assay was performed. An invasion assay is an in vitro proxy for the process of cells migrating and breaking through the extracellular matrix as would occur in the body during metastasis. All three GSK3A/GSK3B inhibitors tested were effective at inhibiting the invasion of the human triple negative breast cancer cell model MDA-MB-231 cells (FIG. 7B). […] Cell viability was determined at 10 μM by CellTiter-Glo® (CTG). […] At 10 μM doses, off-target effects can confound pharmacologic interpretations not to mention that it is unlikely to be a physiologically feasible dose for mice or humans. The viability at for each of the line as tested with each of these drugs was 76.4% for CHIR-99021 and 80.5% for 6-BIO 10 μM of drug by CTG.
# (§2) Culture medium was removed when cells reached 80% confluence. Cultures were gently rinsed with PBS to remove all the remaining serum. Serum-free medium was added to the cultures and they were incubated overnight at 37° C. 5% CO2.
# (§3) 786-O. NCI-H460, NCI-H226, MDA-MB-231 and DU-145 cells were tested in transwells with 3 μm pores. HCT-116, PC-3, MDA-MB-453 and COLO-205 cells were tested in transwells with 8 μm pores.
# (§4) First, the Matrigel® was thawed in an ice bath in a refrigerator (4° C.) overnight. Matrigel® was then diluted into serum-free, cold cell culture media (1:8 dilution). 20 μL of diluted Matrigel®) was added into each well of BD Falcon™ Multiwell 96-well cell culture inserts. Transwell inserts were incubated at 37° C., for at least 4 to 5 hours for gelling. Before use, the transwells were rehydrated by adding 100 μL PBS to the insert and incubated at 37° C., in ambient air for 2 hours.
# Cells were harvested using Trypsin and washed once with serum free medium. Cells were resuspended with serum-free medium. The 786-O cell density was adjusted to 2×10^5 cells/mL; the NCI-H460 and NCI-H226 cell density was adjusted to 5×10^6 cells/mL; the MDA-MB-231 and DU-145 cell density was adjusted to 1×10^6 cells/mL; the HCT-116 cell density was adjusted to 5×10^6 cells/mL; the PC-3 cell density to 1×10^6 cell/mL; the MDA-MB-453 cell density was adjusted to 5×10^5 cells/mL; and the COLO-205 cell density was adjusted to 2×10^6 cells/mL.
# Cells were pre-treated with compounds, which were dissolved in DMSO and diluted to the desired concentration in culture medium. The pretreatment was performed in Ultra-low attachment multiwell plates. 90 μL cells and 10 μL compound solution were mixed in each well of the plate. The plate was covered with a lid and incubated for 60 minutes. 50 μL of cells was seeded onto each top insert, which was pre-coated with 1:8 diluted Matrigel®. 180 μL of warm (37° C.) culture medium containing 10% FBS was added to the lower chamber of the transwell plate. 200 μL serum-free medium and 20 μL of compound dilution was added to the indicated lower chamber as the negative control. The 96-Multiwell Insert system was transferred to the incubator for 16 hours at 37° C., and 5% CO2. Next, the insert was transferred to a new plate. The lower chambers were centrifuged at 3000 rpm for 5 minutes and then washed twice with PBS.
# The insert was transferred back to the lower chamber and 200 μL of the DiTC12(3) fluorescent dye solution was added. The final concentration of DiIC12(3) was 5 μg/mL. Plates were incubated for 30 minutes at 37° C., and 5% CO2. The plates were then washed with PBS twice. The invaded/migrated cells were monitored by reading fluorescence at 530/590 nm on a PerkinElmer EnSpire™ plate reader.
# Percent inhibition for compound was calculated using Formula 6.
# The positive control was DMSO treated and had medium with 10% FBS (average of 3 wells per cell line) in receiver well. The negative control was DMSO treated with no FBS in the receiver well (average of 3 wells per cell line). […]
# [3] = CellTiter-Glo viability, MDA-MB-231; type: cell-based, human; conditions: human, MDA-MB-231 cells; for viability at 10 µM: MDA-MB-231, 10 μM of drug
# Procedure: as §1
# A549 (lung cancer) cells = assay: Transwell invasion assay, A549; type: cell-based; conditions: A549, previous experiment, FIG. 9B
# Procedure: as §2, §4
# Cells were pre-treated with compounds, which were dissolved in DMSO and diluted to the desired concentration in culture medium. The pretreatment was performed in Ultra-low attachment multiwell plates. 90 μL cells and 10 μL compound solution were mixed in each well of the plate. The plate was covered with a lid and incubated for 60 minutes. […]
# (§5) The insert was transferred back to the lower chamber and 200 μL of the DiTC12(3) fluorescent dye solution was added. […] The invaded/migrated cells were monitored by reading fluorescence at 530/590 nm on a PerkinElmer EnSpire™ plate reader.
# (§6) Percent inhibition for compound was calculated using Formula 6. […]
# [4] = test system: DU-145 (prostate cancer) cells; assay: Transwell invasion assay, DU-145; type: cell-based; conditions: DU-145, cell line panel, FIG. 9A
# Procedure: as §2, §3, §4
# (§7) Cells were harvested using Trypsin and washed once with serum free medium. Cells were resuspended with serum-free medium. […]
# as §5, §6
# [5] = CellTiter-Glo viability, MDA-MB-453; type: cell-based; conditions: human, MDA-MB-453 cells; MDA-MB-453, 600 nM; read-out: cell viability by CellTiter-Glo
# Procedure: as §1
# [6] = test system: NCI-H226 (lung cancer) cells; assay: Transwell invasion assay, NCI-H226; type: cell-based; conditions: NCI-H226, cell line panel, FIG. 9A
# Procedure: as §2, §3, §4, §7, §5, §6
# [7] = CellTiter-Glo viability, 786-O; type: cell-based; conditions: human, 786-O cells, 600 nM, assay threshold 80%, read-out: cell viability by CellTiter-Glo
# Procedure: as §1
# [8] = test system: PC-3 (prostate cancer) cells; assay: Transwell invasion assay, PC-3; type: cell-based; conditions: PC-3, cell line panel, FIG. 9A
# Procedure: as §2, §3, §4, §7, §5, §6
# [9] = CellTiter-Glo viability, NCI-H226; type: cell-based; conditions: human, NCI-H226 cells; NCI-H226, 600 nM; read-out: cell viability by CellTiter-Glo
# Procedure: as §1
# [10] = CellTiter-Glo viability, HCT-116; type: cell-based; conditions: human, HCT-116 cells; HCT-166 (so in the source), 600 nM; read-out: cell viability by CellTiter-Glo
# Procedure: as §1
# [11] = CellTiter-Glo viability, PC-3; type: cell-based; conditions: human, PC-3 cells; PC3, 600 nM; read-out: cell viability by CellTiter-Glo
# Procedure: as §1
# [12] = test system: 786-O (renal cancer) cells; assay: Transwell invasion assay, 786-O; type: cell-based; conditions: cell line panel, FIG. 9A
# Procedure: as §2, §3, §4, §7, §5, §6
# [13] = test system: NCI-H460 (lung cancer) cells; assay: Transwell invasion assay, NCI-H460; type: cell-based; conditions: NCI-H460, cell line panel, FIG. 9A
# Procedure: as §2, §3, §4, §7, §5, §6
# [14] = CellTiter-Glo viability, NCI-H460; type: cell-based; conditions: human, NCI-H460 cells; NCI-H460, 600 nM; read-out: cell viability by CellTiter-Glo
# Procedure: as §1
# [15] = test system: HCT-116 (colon cancer) cells; assay: Transwell invasion assay, HCT-116; type: cell-based; conditions: HCT-116, cell line panel, FIG. 9B; low baseline invasiveness
# Procedure: as §2, §3, §4, §7, §5, §6
# [16] = test system: MDA-MB-453 (breast cancer) cells; assay: Transwell invasion assay, MDA-MB-453; type: cell-based; conditions: MDA-MB-453, cell line panel, FIG. 9B; low baseline invasiveness
# Procedure: as §2, §3, §4, §7, §5, §6
# [17] = test system: COLO-205 (colon cancer) cells; assay: Transwell invasion assay, COLO-205; type: cell-based; conditions: COLO-205, cell line panel, FIG. 9B
# Procedure: as §2, §3, §4, §7, §5, §6
# [18] = CellTiter-Glo viability, COLO-205; type: cell-based; conditions: human, COLO-205 cells; COLO-205, 600 nM; read-out: cell viability by CellTiter-Glo
# Procedure: as §1
# [19] = CellTiter-Glo viability, DU-145; type: cell-based; conditions: human, DU-145 cells; DU-145, 600 nM; read-out: cell viability by CellTiter-Glo
# Procedure: as §1
# [20] = CellTiter-Glo viability, A549; type: cell-based; conditions: human, A549 cells; A549, 600 nM; read-out: cell viability by CellTiter-Glo
# Procedure: as §1
# [21] = read-out: cell viability by CellTiter-Glo
compound,measurement,setting,value
O=C1Nc2cc(Br)ccc2/C1=C1/Nc2ccccc2/C1=N\O [6-BIO],cell viability by CellTiter-Glo,MDA-MB-231 cells [1],80.5%
same,inhibition of tumor cell invasion,MDA-MB-231 cells [2],"inhibited tumor cell invasion but only at the higher dose levels tested (e.g., 1-10 μM)"
Cc1c[nH]c(-c2cnc(NCCNc3ccc(C#N)cn3)nc2-c2ccc(Cl)cc2Cl)n1 [CHIR-99021],viability at 10 µM,[3]; [21],76.4%
same,inhibition of tumor cell invasion,MDA-MB-231 cells [2],"inhibited tumor cell invasion but only at the higher dose levels tested (e.g., 1-10 μM)"
O=C1NC(=O)C(c2cnc3ccccn23)=C1c1cn2c3c(cc(F)cc13)CN(C(=O)N1CCCCC1)CC2 [LY-2090314],inhibition of invasion,A549 (lung cancer) cells,did not significantly inhibit
same,inhibition of invasion,[4],markedly inhibited
same,viability at 0.6 µM,[5],~100%
same,inhibition of invasion,[6],markedly inhibited
same,viability at 0.6 µM,[7],83%
same,inhibition of invasion,[8],markedly inhibited
same,viability at 0.6 µM,[9],~100%
same,viability at 0.6 µM,[10],~97.7%
same,viability at 0.6 µM,[11],~100%
same,inhibition of invasion,[12],markedly inhibited
same,viability at 0.6 µM,"[3]; MDA-MB-231, 600 nM of drug, dose response experiment (FIG. 8), read-out: cell viability by CellTiter-Glo",93.5%
same,viability at 0.6 µM,"[3]; MDA-MB-231, 600 nM, cell line panel experiment (FIG. 9A)",95.5%
same,viability at 10 µM,[3]; [21],~100%
same,inhibition of invasion,[13],markedly inhibited
same,viability at 0.6 µM,[14],~100%
same,inhibition of invasion,[15],did not significantly inhibit
same,IC50,"MDA-MB-231 cells [2]; Homo sapiens, MDA-MB-231, dose response FIG. 8, average of 6 wells, read-out: 50% inhibition of baseline invasion",~5 nM
same,inhibition of invasion,"MDA-MB-231 cells [2]; MDA-MB-231, cell line panel, FIG. 9A, average of 6 wells",markedly inhibited
same,dose of maximal inhibition of tumor cell invasion,"MDA-MB-231 cells [2]; MDA-MB-231, dose response FIG. 8, average of 6 wells",approximately 24 nM
same,inhibition of tumor cell invasion,MDA-MB-231 cells [2],inhibited tumor cell invasion at all concentrations tested
same,inhibition of invasion,[16],did not significantly inhibit
same,inhibition of invasion,[17],did not significantly inhibit
same,viability at 0.6 µM,[18],~100%
same,viability at 0.6 µM,[19],~100%
same,viability at 0.6 µM,[20],99.3%
